Measurements: US20130273182A1, “A Herbal Extract for Treating Fatty Liver Disease and a Medication Thereof” (priority 2012, published 2013)

Assay: DPPH free radical elimination test
Assay type: biochemical
Conditions: 10 mg/ml sample, 0.1 mM DPPH, room temperature 30 minutes, OD 517 nm
Experimental: Trial (A): DPPH Free Radical Elimination Test Referring to TABLE 1, there are six groups (A0) to (A5) to test, wherein the group (A0) comprising 10 mg/ml of ascorbic acid, and other five groups comprising extract of a dry Andrographis paniculata sample, a dry Acanthopanax senticosus sample or a combination of dry Andrographis paniculata sample and dry Acanthopanax senticosus sample in various weight ratios respectively. The group (A1) is a liquid extract obtained by extracting 4 kg of dry Andrographis paniculata sample with 1 liter of 95% ethanol. The group (A2) is a liquid extract obtained by extracting 4 kg of dry Acanthopanax senticosus sample with 1 liter of 95% ethanol. The group (A3) is a liquid extract obtained by extracting 4 kg of dry Andrographis paniculata sample and dry Acanthopanax senticosus sample in a weight ratio of 1:1 with 1 liter of 95% ethanol. The group (A4) is a liquid extract obtained by extracting 4 kg of dry Andrographis paniculata and dry Acanthopanax senticosus in a weight ratio of 1:2 with 1 liter of 95% ethanol. The group (A5) is a liquid extract obtained by extracting 4 kg of dry Andrographis paniculata and dry Acanthopanax senticosus in a weight ratio of 1:3 with 1 liter of 95% ethanol. […] The 6 samples are analyzed in the DPPH free radical elimination ability. […] DPPH elimination rates of each sample are further calculated by using Formula I. [formula]

O=C1O[C@H]([C@@H](O)CO)C(O)=C1O [ascorbic acid]
Percentage of DPPH elimination (%): 96.4 ± 2.7%
